Data taken from US7687079B2, “Methods of treating ileus” (priority 2002, dated 2010).
“Also recorded” adds a separate entry of the source.

What was measured:
serum IL-6 = serum IL-6 ELISA after SITx; assay type: in vivo, rat
Description: Serum samples were taken sequentially at 1, 4 and 24 hours after reperfusion and stored at −80° C. until evaluation. Serum cytokine concentrations, including IL-6, IL-10 and TNFα, were determined using rat enzyme-linked immunoassay (ELISA) kits as described by the manufacturer (R & D, Cambridge, Mass.).
FIG. 6 is a set of bar graphs that illustrate the effect of CO on serum IL-6 and nitrate/nitrite concentrations in animals receiving intestinal grafts at one and four hours after reperfusion. […] Serum IL-6 concentrations were determined using a rat enzyme-linked immunoassay (ELISA) kit (R&D, Cambridge, Mass.). The serum nitrite/nitrate levels, the stable end products of NO metabolism, were measured using a commercially available test kit (Cayman, Ann Arbor, Mich.). In this assay system, nitrate is reduced to nitrite using nitrate reductase, and nitrite concentration of the sample was subsequently measured using the Griess reaction. Serum IL-6 and nitrite/nitrate levels in animals subjected SITx and treated with air increased over time.

IL-6 mRNA = IL-6 mRNA in muscularis after IM (real time RT-PCR); assay type: in vivo, mouse; settings: IM + CO, 3 and 6 hr time points
Description: Pro- and anti-inflammatory gene expression was determined by real time RT-PCR. The small intestinal muscularis externa was collected at 4 time points (3, 6, 12, and 24 hr) postoperatively and snap frozen in liquid nitrogen. Total RNA extraction was performed using the guanidium-thiocyanate phenol-chloroform extraction method as described in Eskandari et al. (Id.) RNA pellets were resuspended in RNA-secure resuspension solution (Ambion Inc., Austin, Tex.), followed by removal of potential contaminating DNA by treatment with DNase I (DNA-Free Kit, Ambion Inc., Austin, Tex.). Equal aliquots (5 μg) of total RNA from each sample were quantified by spectrophotometry (wavelength […]). Peak mRNA expression was quantified in duplicate by SYBR Green two-step, real-time RT-PCR. β-actin was used as the endogenous reference. […] Real-time PCR data were plotted as the ΔRn fluorescence signal versus the cycle number. […] Quantification of mRNA expression was normalized to β-actin and calculated relative to control using the comparative CT method.
To exclude PCR amplification of contaminating genomic DNA, RT-negative controls (samples containing RNA which was not reverse transcribed) were included in each PCR reaction. […] PCR amplification efficiency of each target cDNA was measured by determining the colinearity of serial dilutions. […]

[1] = system: small intestinal circular muscle; assay: in vitro circular muscle contractility (spontaneous and bethanechol-stimulated) after IM; assay type: in vivo, mouse
Excerpt: Surgical Manipulation. Mice were anesthetized with inhaled isoflurane and the abdomen opened by midline laparotomy. The small intestine was eventrated and gently compressed along its entire length using moistened sterile cotton applicators. This procedure is designed to simulate “running” of the bowel commonly performed during abdominal surgery in the clinical setting. The bowel was repositioned in the abdominal cavity and the incision closed by two layers of continuous sutures. The duration of the procedure was approximately 15 minutes and the animals moved freely about their cage within 20 minutes of withdrawal of anesthetic.
CO Inhalation Treatment. Mice housed in cages were placed in plexiglass chambers that were continuously ventilated with air or with air containing CO (250 ppm). A sampling port was provided to continuously monitor carbon monoxide concentrations within the chamber. Animals had free access to food and water at all times. Mice were exposed to CO or air 1 hour prior to laparotomy, removed for surgical manipulation, and then returned to the chamber for 24 hours. Mice not undergoing surgery were removed from the chamber for a similar length of time and then returned to the chamber for 24 hours.
Mice were anesthetized and killed by exsanguination at the end of the 24-hour chamber treatment with CO or room air. In vitro circular muscle mechanical activity was measured as previously described in Eskandari et al. (Am. J. Physiol. 273:G727-G734 (1997)). Briefly, a segment of mid small bowel was pinned in a Sylgard™ (Midland, Mich.) lined dissecting dish containing pre-oxygenated Krebs-Ringer-bicarbonate buffer (KRB; in mM: 137.4 Na^+, 5.9 K^+, 2.5 Ca^2+, 1.2 Mg^2+, 134 Cl^−, 15.5 HCO3^−, 1.2 H2PO4−, and 11.5 glucose), gassed with 97% O2/3% CO2 to establish a pH of 7.4. The intestine was opened along the mesenteric border, and the mucosa removed by stripping with fine forceps. Full-thickness strips of muscularis (1×6 mm) cut parallel to the circular muscle layer were mounted in standard horizontal mechanical organ chambers and were continuously superfused with preoxygenated KRB maintained at 37° C. One end of each strip was attached by ligature to a fixed post and the other to an isometric force transducer (WPI, Sarasota, Fla.). Strips were allowed to equilibrate for 1 hour, after which they were incrementally stretched to Lo (length at which maximal spontaneous contraction occurs). After a baseline recording period of 30 min, contractility-response curves were generated by exposing the tissues to increasing concentrations of the muscarinic agonist bethanechol (0.3 to 300 μM) for 10 minutes, followed by intervening 10-minute wash periods. Contractile activity was calculated by integrating the area under the trace. The response was normalized to the amount of tissue by converting the weight (1.03 mg/mm^2) and length of the strip to square millimeters of tissue, and reported as g/s/mm^2. Intestinal transit was measured in controls and manipulated animals 24 hours postoperatively by evaluating the intestinal distribution of a non-absorbable fluorescein-labeled dextran (MW 70,000). Animals were lightly sedated with isofluran and fed orally with labeled dextran (100 μl of 25 mg/ml stock solution). Ninety minutes after administration, the animal was sacrificed and the entire bowel from stomach to distal colon was collected. The contents of the stomach, small bowel (divided into 10 segments of equal length), the cecum, and colon (3 segments of equal length) were each minced in 1 ml of saline and mixed vigorously to release the dextran present in each segment. After pelleting the intestinal tissue and chyme, aliquots of the cleared supernatant were read in duplicate on a plate reader (CytoFluor II; excitation wavelength 530 nm and emission 590 nm) for quantification of the fluorescent signal in each bowel segment. […]

## [C-]#[O+] [CO, carbon monoxide]
Serum IL-6; SITx + CO vs SITx with air
  serum IL-6 level: significantly decreased; also recorded: significantly lower
Serum IL-6; SITx + CO, 4 hours after reperfusion, Table 2
  Serum IL-6: 1439 pg/mL
IL-6 mRNA
  manipulation-induced IL-6 gene expression: no effect
[1]; IM + CO
  bethanechol-induced contractile activity: restored contractile activity to control levels
[1]; IM + CO 250 ppm, 100 μM bethanechol
  peak contractile force: 3.6±0.7 g/s/mm^2
[1]; IM mice treated with CO
  spontaneous contractile activity (rythmicity): significantly improved; also recorded: restored
[1]; control animals + CO
  bethanechol-induced contractile activity: no effect
[1]; control mice + CO 24 hr
  spontaneous contractility: no effect
[1]; control mice, CO alone, bethanechol
  peak contractile force: 3.2±0.5 g/s/mm^2
